The target of one assay is T1, C-ACE (Homo sapiens, UniProt P12821).
T1 construct: tACEΔ36-g13, truncated underglycosylated variant of testis ACE (C-domain), CHO cells, purified
As to the kind of experiment: X-ray crystal structure, […] Å. It is filed as binding. The conditions noted are these: co-crystal, pH 4.0 reservoir; active site, zinc coordination.

The target of assay [1] is T2, AnCE (Drosophila melanogaster, UniProt Q10714).
T2 construct: recombinant single-domain enzyme, secreted from Pichia pastoris, purified
T2 sequence (Q10714 18-615): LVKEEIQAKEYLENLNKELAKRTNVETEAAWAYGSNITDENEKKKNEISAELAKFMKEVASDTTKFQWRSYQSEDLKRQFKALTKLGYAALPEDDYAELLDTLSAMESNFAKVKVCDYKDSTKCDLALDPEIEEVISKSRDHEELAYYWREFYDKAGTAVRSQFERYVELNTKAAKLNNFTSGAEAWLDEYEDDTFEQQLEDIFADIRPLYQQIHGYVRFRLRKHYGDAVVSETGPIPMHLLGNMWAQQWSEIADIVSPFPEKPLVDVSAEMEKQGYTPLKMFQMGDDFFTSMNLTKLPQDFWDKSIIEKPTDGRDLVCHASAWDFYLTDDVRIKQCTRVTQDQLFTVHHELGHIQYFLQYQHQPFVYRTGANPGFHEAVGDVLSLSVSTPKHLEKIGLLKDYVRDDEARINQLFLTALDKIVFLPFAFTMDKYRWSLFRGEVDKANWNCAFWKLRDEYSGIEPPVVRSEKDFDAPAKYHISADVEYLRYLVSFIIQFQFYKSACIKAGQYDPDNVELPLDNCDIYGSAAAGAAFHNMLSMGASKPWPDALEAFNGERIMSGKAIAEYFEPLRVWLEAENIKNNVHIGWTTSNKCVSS
Briefly: inhibition of hippuryl-histidyl-leucine hydrolysis, Ki from IC50 (Cheng-Prusoff). The class given is biochemical. The following applies: read-out: apparent Ki.

Assay [2] addresses T2, AnCE. As to the kind of experiment: inhibition of hippuryl-histidyl-leucine hydrolysis. It is filed as biochemical.

The structures appear in SMILES notation.

T1 sequence (P12821 642-1230): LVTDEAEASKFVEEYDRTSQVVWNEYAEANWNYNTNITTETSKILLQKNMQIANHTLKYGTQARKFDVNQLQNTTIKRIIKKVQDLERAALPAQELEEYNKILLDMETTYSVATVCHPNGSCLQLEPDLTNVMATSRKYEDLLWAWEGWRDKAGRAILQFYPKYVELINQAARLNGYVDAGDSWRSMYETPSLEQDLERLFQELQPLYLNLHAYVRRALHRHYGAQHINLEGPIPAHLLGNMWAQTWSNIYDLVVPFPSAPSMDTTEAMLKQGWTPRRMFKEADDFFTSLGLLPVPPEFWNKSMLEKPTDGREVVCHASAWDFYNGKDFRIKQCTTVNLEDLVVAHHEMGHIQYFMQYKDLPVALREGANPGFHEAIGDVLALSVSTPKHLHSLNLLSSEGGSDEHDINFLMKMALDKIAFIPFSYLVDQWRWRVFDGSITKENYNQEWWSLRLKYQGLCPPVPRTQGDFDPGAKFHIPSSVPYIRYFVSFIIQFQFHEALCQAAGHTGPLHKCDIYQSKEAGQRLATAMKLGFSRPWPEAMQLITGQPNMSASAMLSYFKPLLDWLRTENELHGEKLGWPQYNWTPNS

As for `O=C(N[C@@H](Cc1ccccc1)P(=O)(O)C[C@@H](Cc1cc(-c2ccccc2)no1)C(=O)N[C@@H](Cc1ccc(O)cc1)C(=O)O)OCc1ccccc1` [FI, (2S)‐2‐({3‐[hydroxyl (2‐phenyl‐(1R)‐1‐{[(benzyloxy)carbonyl]‐amino}ethyl)phosphinyl]‐2‐[(3‐phenylisoxazol‐5‐yl)methyl]‐1‐oxo‐propyl}amino)‐3‐(4‐hydroxy‐phenyl) propanoic acid], the “X-ray crystal structure, 1.85 Å” value at C-ACE was “One bound inhibitor molecule was modelled in the catalytic site of C‐ACE”. Further, the Ki at AnCE [1] came to 24 nM. On AnCE [2], the half-inhibitory concentration (IC50) – broadly, the point on the concentration scale where inhibition reaches its midpoint – was 44 nM.
Consider `O=C(N[C@@H](Cc1ccccc1)P(=O)(O)C[C@H](Cc1cc(-c2ccccc2)no1)C(=O)N[C@@H](Cc1ccc(O)cc1)C(=O)O)OCc1ccccc1` [FII, (2S)‐2‐({3‐[hydroxyl (2‐phenyl‐(1R)‐1‐{[(benzyloxy)carbonyl]‐amino}ethyl)phosphinyl]‐2‐[(3‐phenylisoxazol‐5‐yl)methyl]‐1‐oxo‐propyl}amino)‐3‐(4‐hydroxy‐phenyl) propanoic acid], for which the Ki on AnCE [1] stood at 120 nM. Moreover, the IC50 at AnCE [2] came to 210 nM.

The record behind these values is PMC4154125, “Crystal structures of highly specific phosphinic tripeptide enantiomers in complex with the angiotensin‐I converting enzyme” (The Febs Journal, 2013).
